Active and inactive are the calls of the source.
Experiments:
Leucine aminopeptidase = target: T1, Leucine aminopeptidase (Plasmodium falciparum 3D7, UniProt Q8IL11); assay: P. falciparum M17LAP inhibitors, primary screen, biochemical, fluorogenic H-Leu-NHMec substrate, 1536-well (AID 1619); type: functional
T1 sequence (Q8IL11 whole entry): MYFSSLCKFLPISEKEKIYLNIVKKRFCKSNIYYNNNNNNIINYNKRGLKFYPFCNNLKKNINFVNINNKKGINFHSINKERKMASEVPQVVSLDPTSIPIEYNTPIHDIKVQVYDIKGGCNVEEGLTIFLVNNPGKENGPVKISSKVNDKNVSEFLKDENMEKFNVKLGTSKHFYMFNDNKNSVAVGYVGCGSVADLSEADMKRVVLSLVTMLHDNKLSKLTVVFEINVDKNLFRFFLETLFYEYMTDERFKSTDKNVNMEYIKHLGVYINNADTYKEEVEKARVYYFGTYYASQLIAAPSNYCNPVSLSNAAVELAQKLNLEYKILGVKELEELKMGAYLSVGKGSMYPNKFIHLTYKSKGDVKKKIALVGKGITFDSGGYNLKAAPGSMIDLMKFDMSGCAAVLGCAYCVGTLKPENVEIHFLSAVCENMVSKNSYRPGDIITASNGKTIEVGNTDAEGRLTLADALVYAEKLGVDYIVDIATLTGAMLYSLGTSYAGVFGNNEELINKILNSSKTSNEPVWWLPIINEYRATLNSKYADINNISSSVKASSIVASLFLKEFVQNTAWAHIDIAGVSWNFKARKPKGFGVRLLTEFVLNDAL

Estrogen receptor beta = Estrogen receptor beta (Homo sapiens, UniProt Q92731); assay: ERβ–SRC-3 coactivator interaction inhibitors, confirmation, orthogonal assay, biochemical, ELISA, streptavidin-HRP readout (AID 1060)
Sequence of Estrogen receptor beta (Q92731 whole entry): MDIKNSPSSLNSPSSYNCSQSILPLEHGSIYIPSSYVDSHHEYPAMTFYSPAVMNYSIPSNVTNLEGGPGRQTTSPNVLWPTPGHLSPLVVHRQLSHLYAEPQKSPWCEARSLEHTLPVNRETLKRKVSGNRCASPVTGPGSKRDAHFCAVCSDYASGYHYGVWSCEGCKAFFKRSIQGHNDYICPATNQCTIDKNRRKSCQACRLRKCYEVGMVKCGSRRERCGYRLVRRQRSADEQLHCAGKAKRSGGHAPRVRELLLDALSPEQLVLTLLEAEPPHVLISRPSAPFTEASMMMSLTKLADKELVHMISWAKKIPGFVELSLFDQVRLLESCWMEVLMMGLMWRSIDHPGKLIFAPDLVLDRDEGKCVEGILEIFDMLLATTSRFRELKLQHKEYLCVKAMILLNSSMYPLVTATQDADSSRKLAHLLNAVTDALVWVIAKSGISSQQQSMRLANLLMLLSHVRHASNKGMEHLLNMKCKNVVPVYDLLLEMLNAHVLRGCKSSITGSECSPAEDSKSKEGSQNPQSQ

[1] = target: T2, Polyadenylate-binding protein 1 (Homo sapiens, UniProt P11940); assay: PABP1 MLLE–PAM2 interaction inhibitors, dose response, miRNA deadenylation inhibitor project, biochemical, fluorescence polarization, Cy5-PAM2 peptide, secondary (AID 602260); type: functional; settings: read-out: IC50_Mean
T2 sequence (P11940 whole entry): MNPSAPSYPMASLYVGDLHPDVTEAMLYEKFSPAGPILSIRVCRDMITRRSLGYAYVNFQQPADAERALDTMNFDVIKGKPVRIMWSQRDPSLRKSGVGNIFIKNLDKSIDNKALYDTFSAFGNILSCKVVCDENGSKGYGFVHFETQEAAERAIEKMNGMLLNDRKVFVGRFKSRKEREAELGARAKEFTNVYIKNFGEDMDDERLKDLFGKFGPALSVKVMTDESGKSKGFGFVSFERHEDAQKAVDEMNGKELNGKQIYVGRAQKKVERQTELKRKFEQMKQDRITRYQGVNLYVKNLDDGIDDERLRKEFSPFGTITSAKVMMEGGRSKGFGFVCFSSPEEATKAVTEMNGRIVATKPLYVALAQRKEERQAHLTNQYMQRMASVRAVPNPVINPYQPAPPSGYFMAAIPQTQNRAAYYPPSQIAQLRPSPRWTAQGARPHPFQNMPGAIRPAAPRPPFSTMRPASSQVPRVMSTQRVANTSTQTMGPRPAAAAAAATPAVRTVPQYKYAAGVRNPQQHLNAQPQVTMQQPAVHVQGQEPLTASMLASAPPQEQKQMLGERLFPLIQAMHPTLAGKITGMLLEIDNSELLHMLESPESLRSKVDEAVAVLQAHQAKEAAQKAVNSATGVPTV

[2] = target: T2, Polyadenylate-binding protein 1; assay: PABP1 MLLE–PAM2 binding inhibitor potency, dose response, biochemical, fluorescence polarization, FITC-PAM2 peptide (AID 602259); type: functional; settings: read-out: IC50_Mean
Vero = assay: host cell cytotoxicity of antiviral hits, dose response, cytotoxicity control for West Nile virus antiviral project, secondary assay (AID 1650); type: functional; settings: Chlorocebus sabaeus
[3] = Luminescence Cell-Based Dose Response HTS to Identify Inhibitors of 5'UTR Stem-Loop Driven Prion Protein mRNA Translation in H4 Neuroglioblastoma Cells. [Related pubchem assays: 1827 (Project Summary), 1813 (Primary HTS)]; type: functional
[4] = target: T3, DNA repair protein RAD52 homolog (Homo sapiens, UniProt P43351); type: functional, biochemical
T3 sequence (P43351 whole entry): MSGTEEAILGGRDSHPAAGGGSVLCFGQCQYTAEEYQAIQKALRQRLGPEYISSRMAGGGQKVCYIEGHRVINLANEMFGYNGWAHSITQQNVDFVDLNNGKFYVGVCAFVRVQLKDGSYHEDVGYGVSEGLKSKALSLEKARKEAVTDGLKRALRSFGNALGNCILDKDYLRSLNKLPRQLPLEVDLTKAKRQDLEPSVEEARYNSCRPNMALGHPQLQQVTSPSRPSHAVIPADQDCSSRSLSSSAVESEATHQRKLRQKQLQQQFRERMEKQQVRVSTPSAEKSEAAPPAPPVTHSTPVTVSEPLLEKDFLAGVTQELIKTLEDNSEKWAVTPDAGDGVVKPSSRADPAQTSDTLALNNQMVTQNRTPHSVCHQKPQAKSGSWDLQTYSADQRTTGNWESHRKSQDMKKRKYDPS

[5] = target: T4, Ubiquitin-conjugating enzyme E2 N (Homo sapiens, UniProt P61088); type: functional;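 further: Dose-response confirmation in a TR-FRET assay detecting UBC13-driven polyubiquitin chain formation, inhibition measured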
T4 sequence (P61088 whole entry): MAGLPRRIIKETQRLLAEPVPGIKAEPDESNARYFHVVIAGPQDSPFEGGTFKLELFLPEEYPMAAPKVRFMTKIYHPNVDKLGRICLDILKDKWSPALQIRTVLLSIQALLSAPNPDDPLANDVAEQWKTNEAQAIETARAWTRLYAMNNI

[6] = inhibitors of SNCA 5'UTR-driven reporter translation, confirmation, H4 neuroglioma cells, luminescence (AID 1988); type: functional, cell-based
[7] = inhibitors of firefly luciferase expression or activity, dose response, H4 neuroglioma cells, luminescence (AID 1990); type: functional, cell-based
[8] = target: T5, Long-chain-fatty-acid--AMP ligase FadD28 (Mycobacterium tuberculosis, UniProt P9WQ59); assay: Fluorescence polarization aasay to screen for inhibitors that compete for the binding of FadD28 to a bisubstrate Measured in Biochemical System Using Plate Reader - 2147-01_Inhibitor_Dose_CherryPick_Activity.; type: functional, Mycobacterium tuberculosis H37Rv
T5 sequence (P9WQ59 whole entry): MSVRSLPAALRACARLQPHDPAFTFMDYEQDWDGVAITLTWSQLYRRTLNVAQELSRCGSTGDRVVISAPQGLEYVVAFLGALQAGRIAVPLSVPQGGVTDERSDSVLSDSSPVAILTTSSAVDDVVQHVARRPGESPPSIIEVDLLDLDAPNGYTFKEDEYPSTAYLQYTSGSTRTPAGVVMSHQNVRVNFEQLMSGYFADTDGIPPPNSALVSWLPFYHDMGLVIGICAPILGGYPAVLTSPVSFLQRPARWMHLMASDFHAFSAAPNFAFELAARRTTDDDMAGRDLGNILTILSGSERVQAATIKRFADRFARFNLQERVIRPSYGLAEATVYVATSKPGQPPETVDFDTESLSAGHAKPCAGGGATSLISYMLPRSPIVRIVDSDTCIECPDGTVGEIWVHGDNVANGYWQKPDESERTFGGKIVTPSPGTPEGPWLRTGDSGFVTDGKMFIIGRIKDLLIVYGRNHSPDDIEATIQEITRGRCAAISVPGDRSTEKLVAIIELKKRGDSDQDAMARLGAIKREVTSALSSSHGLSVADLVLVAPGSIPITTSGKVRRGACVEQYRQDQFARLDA

[9] = inhibitors of clade B AD8 Env fusion, dose response, cell-based, cherry-pick (AID 652062); type: functional;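 further: luciferase signal from cell-cell fusion driven by HIV-1 clade B AD8 Env; potency is for inhibitors of fusion seen as a drop in luminescence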
[10] = ZM109 Env clade C HIV-1 fusion inhibitors, dose response, HeLa effector, CEM target cells, luciferase, cherry-pick (AID 652058); type: functional, cell-based
[11] = off-target signal loss in HeLa-CEM21 co-culture – HeLa F-luc CTL cells, cherry-picked, counter-screen for HIV-1 Env fusion inhibitor project, dose response (AID 652040); type: functional, cell-based;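 further: potency for signal decrease marking cytotoxic or nonspecific inhibition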
[12] = target: T6, Histone-lysine N-methyltransferase NSD2 (Homo sapiens, UniProt O96028); type: biochemical
T6 sequence (O96028 whole entry): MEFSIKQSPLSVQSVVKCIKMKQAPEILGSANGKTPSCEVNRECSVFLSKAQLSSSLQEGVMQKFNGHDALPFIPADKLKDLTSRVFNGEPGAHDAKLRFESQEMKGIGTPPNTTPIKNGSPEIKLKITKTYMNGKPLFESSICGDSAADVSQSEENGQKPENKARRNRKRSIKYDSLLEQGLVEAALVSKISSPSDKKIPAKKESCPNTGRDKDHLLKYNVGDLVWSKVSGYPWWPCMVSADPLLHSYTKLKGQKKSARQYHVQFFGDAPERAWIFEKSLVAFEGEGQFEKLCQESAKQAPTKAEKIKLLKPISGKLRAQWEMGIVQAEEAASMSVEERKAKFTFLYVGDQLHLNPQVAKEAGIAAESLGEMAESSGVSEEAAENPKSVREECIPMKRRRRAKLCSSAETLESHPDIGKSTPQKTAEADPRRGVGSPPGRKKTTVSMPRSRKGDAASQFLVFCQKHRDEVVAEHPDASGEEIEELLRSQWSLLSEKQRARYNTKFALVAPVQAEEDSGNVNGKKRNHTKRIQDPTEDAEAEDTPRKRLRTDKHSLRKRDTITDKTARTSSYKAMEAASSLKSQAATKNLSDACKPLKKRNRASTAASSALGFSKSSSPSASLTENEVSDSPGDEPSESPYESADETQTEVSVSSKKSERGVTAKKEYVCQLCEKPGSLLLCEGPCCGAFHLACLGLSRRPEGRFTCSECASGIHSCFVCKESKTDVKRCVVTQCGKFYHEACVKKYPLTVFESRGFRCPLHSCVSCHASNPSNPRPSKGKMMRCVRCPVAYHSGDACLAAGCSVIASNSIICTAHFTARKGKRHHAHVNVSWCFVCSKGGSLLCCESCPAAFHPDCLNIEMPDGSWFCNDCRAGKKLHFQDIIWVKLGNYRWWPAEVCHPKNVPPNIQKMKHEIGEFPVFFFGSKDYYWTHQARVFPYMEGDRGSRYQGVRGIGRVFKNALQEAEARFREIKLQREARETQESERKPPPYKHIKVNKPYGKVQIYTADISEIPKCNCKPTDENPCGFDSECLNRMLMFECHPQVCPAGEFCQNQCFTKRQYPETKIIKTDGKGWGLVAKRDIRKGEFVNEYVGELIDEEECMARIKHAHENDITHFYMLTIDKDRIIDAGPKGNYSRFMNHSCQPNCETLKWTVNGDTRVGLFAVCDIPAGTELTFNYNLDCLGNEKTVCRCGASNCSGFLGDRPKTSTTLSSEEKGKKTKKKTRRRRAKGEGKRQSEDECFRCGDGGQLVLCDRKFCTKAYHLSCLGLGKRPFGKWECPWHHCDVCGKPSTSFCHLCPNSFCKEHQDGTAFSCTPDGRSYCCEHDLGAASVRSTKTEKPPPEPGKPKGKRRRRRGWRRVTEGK

[13] = inhibitors of HIV Env-driven cell fusion, dose response, cherry-pick (AID 652057); type: functional, cell-based
[14] = A cytotoxicity screen of small molecule inhibitors of the PhoP region in Salmonella typhi identified in the primary screen. [Related pubchem assays: 1850, 1864, 1985 ]; type: functional
[15] = miR-122 activators in hepatoma reporter cells, dose response, cell-based, Huh7 psiCHECK-miR122, Renilla luciferase, cherry-picked (AID 651956); type: functional;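 further: huh7 hepatoma cells stably carrying a psiCHECK-2 miR-122 sensor plasmid; renilla luciferase signal reporting endogenous miR-122 activity after 48 h compound exposure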
[16] = target: Glyceraldehyde-3-phosphate dehydrogenase (Homo sapiens, UniProt P04406)
Sequence of Glyceraldehyde-3-phosphate dehydrogenase (P04406 whole entry): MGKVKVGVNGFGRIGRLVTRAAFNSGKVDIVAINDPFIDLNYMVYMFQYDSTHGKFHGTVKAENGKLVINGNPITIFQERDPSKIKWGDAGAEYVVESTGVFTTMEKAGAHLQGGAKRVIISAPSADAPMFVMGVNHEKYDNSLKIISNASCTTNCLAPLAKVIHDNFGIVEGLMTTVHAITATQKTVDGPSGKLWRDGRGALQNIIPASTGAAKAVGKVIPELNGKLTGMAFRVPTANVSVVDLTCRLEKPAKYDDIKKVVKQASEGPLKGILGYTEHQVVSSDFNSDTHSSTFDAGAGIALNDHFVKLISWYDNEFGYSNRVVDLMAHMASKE

[17] = HEK293T cytotoxicity, dose response, cytotoxicity control for miR-122 modulator project, cell-based, inhibitor set, cherry-pick, set 2 (AID 720697); type: functional

Cc1ccc(C(=O)Nc2nc(=O)n(C(=O)CC(C)C)s2)cc1
IC50 (Leucine aminopeptidase): 24.5 µM (active)

Cc1nnc(N2C(=O)c3oc4ccccc4c(=O)c3C2c2ccco2)s1 (stereo not drawn)
IC50 (Estrogen receptor beta): 0.0501 µM (not active) | IC50 [1]: > 66 µM (inactive) | IC50 [2]: > 66 µM (inactive)

O=C(Nc1ccc(Cl)cc1-c1nc2ccccc2s1)c1ccco1
CC50 (Vero): 13.3 µM (active)

CN(C)CCn1cnc2c(c1=N)C(c1ccccc1)c1ccc3ccccc3c1O2 (stereo not drawn)
EC50 [3]: 0.18 µM (active) | AC50 [4]: 23.6 µM (active) | IC50 [5]: > 20 µM (inactive) | EC50 [6]: > 120 µM (not active) | EC50 [7]: > 120 µM (not active)

CCOc1cc(/C=C2/NC(=O)N(CC(=O)Nc3cccc(C)c3)C2=O)ccc1O
AC50 [8]: 51.7 µM (active)

CC(C)NS(=O)(=O)c1ccc(OCC(=O)N2CCN(Cc3ccc4c(c3)OCO4)CC2)c(Cl)c1
AC50 [9]: 13.4 µM (active) | AC50 [10]: 1.86 µM (active) | AC50 [11]: 29.7 µM (active)

CCCN(CCC)CCCN=C(S)Nc1ccc2nc(N3CCN(CC)CC3)cc(C)c2c1
AC50 [4]: 5.26 µM (active) | AC50 [12]: > 20 µM (inactive)

O=S1(=O)c2c(cccc2N2CCCCC2)O[C@H](COCc2ccccc2)CN1C1CC1
AC50 [13]: 6.53 µM (active) | AC50 [9]: 22.4 µM (active) | AC50 [10]: 4.61 µM (active) | AC50 [11]: 16.3 µM (active)

CCn1cc(-c2cc(C(F)(F)F)n3nc(C(=O)O)cc3n2)c(C)n1
IC50 (Estrogen receptor beta): 3.41 µM (not active)

CN1CCN(c2nc3ccccc3nc2C(C#N)S(=O)(=O)c2ccccc2)CC1 (stereo not drawn)
EC50 [3]: > 120 µM (not active) | EC50 [6]: 18.8 µM (active) | EC50 [7]: > 120 µM (not active) | CC50 (Vero): 4.16 µM (active)

O=C(O)CC/C(=N/NC(=O)c1cccs1)c1ccccc1
IC50 (Leucine aminopeptidase): 36 µM (active)

Cc1cc(C)nc(SCC(=O)Nc2sc3c(c2C#N)CCC(C)C3)n1 (stereo not drawn)
EC50 [14]: > 50 µM (active)

C/C(NNC(=O)c1ccccc1O)=C1/C(=O)NC(=O)N(C2CCCCC2)C1=O
AC50 [8]: 24.7 µM (active)

COCC(=O)N(C)C[C@H]1Oc2cc(C#Cc3cccnc3)ccc2S(=O)(=O)N([C@@H](C)CO)C[C@@H]1C
AC50 [15]: 32.8 µM (active)

O=C(C[C@@H]1C/C=C/CC[C@@H](Cc2ccc(F)cc2)C(=O)O[C@H](c2ccccc2)CNC1=O)NCCO
AC50 [13]: 5.18 µM (active) | AC50 [9]: 6.44 µM (active) | AC50 [10]: 5.4 µM (active) | AC50 [11]: 6.16 µM (active)

COc1ccc(Br)cc1S(=O)(=O)Nc1cnc2ccccc2c1
IC50 [16]: > 100 µM (not active)

COCC(=O)NC[C@H]1[C@@H](c2ccc(C3=CCCC3)cc2)[C@@H](CO)N1C(=O)C1CC1
AC50 [17]: 9.14 µM (active)

Cc1ccc(NC(=O)CN2C(=O)S/C(=C\c3cc(C)n(-c4ccc(C(=O)O)cc4)c3C)C2=O)cc1
AC50 [8]: 2.97 µM (active)

O=C(O)COc1ccc(Br)cc1/C=C1/SC(=O)N(CC(=O)N2CCCC2)C1=O
IC50 (Leucine aminopeptidase): 34.8 µM (active)

O=C1C(Cl)=C(N2CCN(c3ccccc3)CC2)C(=O)N1c1ccc(C(F)(F)F)cc1
IC50 [16]: > 50 µM (inconclusive)

Source: ChEMBL document CHEMBL1201862, “PubChem BioAssay data set” (2004)
